Patent US8227459B2, “Diamino-phenothiazinyl derivatives as antiviral treatments” (priority 2007, dated 2012)

Tests used:
DENV = format: cell-based, Dengue virus
VEEV Trinidad virus = format: cell-based, Venezuelan Equine Encephalitis virus
WNV = format: cell-based, West Nile virus
RVFV = format: cell-based, Rift Valley Fever virus
LASV = format: cell-based, Lhasa virus
HCV = format: cell-based, hepatitis C virus
EBOV [1] = test system: EBOV; parameters: species or system mice; conditions: mouse, in vivo, ip
WEEV = format: cell-based, Wester Equine Encephalitis virus
EBOV [2] = format: cell-based, Ebola virus
EEEV = format: cell-based, Easter Equine Encephalitis virus
CHK = format: cell-based, chikungunya virus
Marburg virus = test system: Marburg virus; parameters: species or system mice; conditions: mouse, in vivo, ip
PTV = format: cell-based, Punta Toro Virus

## CN(C)c1ccc2nc3ccc(N)cc3[s+]c2c1.[Cl-] [Azure A]
DENV
  EC99 DENV: 1 µM
VEEV Trinidad virus
  EC99 VEEV: 0.1 to 1 µM

## CNc1ccc2nc3ccc(N)cc3[s+]c2c1.[Cl-] [Azure C]
DENV
  EC99 DENV: <1 µM
VEEV Trinidad virus
  EC99 VEEV: 0.1 µM

## CN(C)c1cc(F)c2nc3c(F)cc(=[N+](C)C)cc-3sc2c1 [Compound 3]
WNV
  EC99 WNV: 1 µM
RVFV
  EC99 RVFV: >5 µM
LASV
  EC99 LASV: >5 µM
VEEV Trinidad virus
  EC99 VEEV: <1 µM

## CN(C)c1cc(Cl)c2nc3c(Cl)cc(=[N+](C)C)cc-3sc2c1 [Compound 4]
WNV
  EC99 WNV: <1 µM
RVFV
  EC99 RVFV: 0.05 µM
LASV
  EC99 LASV: <5 µM
VEEV Trinidad virus
  EC99 VEEV: <1 µM

## Cc1cc(=[N+](C)C)cc2sc3cc(N(C)C)cc(C)c3nc1-2.[Cl-] [Dimethyl MB, dimethylmethylene blue]
HCV
  EC99 HCV: 0.2 to 0.5 µM
EBOV [1]
  prophylaxis of study group against EBOV: complete prophylaxis
  survival, EBOV: 100%
WEEV
  EC99 WEEV: 0.1 µM
WNV
  EC99 WNV: 0.025 to 0.1 µM
RVFV
  EC99 RVFV: <10 µM
LASV
  EC99 LASV: <1 µM
EBOV [2]
  EC99 EBOV: 0.025 to 0.1 µM
EEEV
  EC99 EEEV: <0.1 µM
VEEV Trinidad virus
  EC99 VEEV: 0.02 to 0.1 µM
CHK
  EC99 CHK: 0.1 to 1 µM
Marburg virus
  day by which surviving mice had recovered, Marburg: ≤ 9 days
  prophylaxis of study group against Marburg: 60%
PTV
  EC99 PTV: 5 µM

## CN(C)c1ccc2nc3ccc(=[N+](C)C)cc-3sc2c1 [Methylene Blue (MB), Methylene Blue]
HCV
  EC99 HCV: 0.02 to 0.08 µM
WEEV
  EC99 WEEV: 1 µM
WNV
  EC99 WNV: <1 µM
RVFV
  EC99 RVFV: >5 µM
DENV
  EC99 DENV: 10 µM
EBOV [2]
  EC99 EBOV: >3.2 µM
EEEV
  EC99 EEEV: 1 µM
VEEV Trinidad virus
  EC99 VEEV: <1 µM
CHK
  EC99 CHK: 1 µM

## Cc1cc2nc3ccc(N(C)C)cc3[s+]c2cc1N.[Cl-] [Toluidine Blue]
DENV
  EC99 DENV: 1 µM
VEEV Trinidad virus
  EC99 VEEV: <10 µM

## Azure B
DENV
  EC99 DENV: 1 µM
VEEV Trinidad virus
  EC99 VEEV: 0.1 to 1 µM
